The source of these data is patent US20100179203A1, “NOVEL PYRAZOLE DERIVATIVES USEFUL AS POTASSIUM CHANNEL MODULATORS” (priority 2007, published 2010).

Data set [1] addresses T1, BK channels (Homo sapiens, UniProt Q12791).
T1 construct: expressed in transfected cells; host or cells: Xenopus laevis oocytes
Briefly: BK channel opening activity, two-electrode voltage clamp in Xenopus laevis oocytes. The format is cell-based. The procedure:
In this example the BK channel opening activity of Compound 9 (FIGS. 1A and 1B) is determined using BK channels heterologously expressed in Xenopus laevis oocytes.
The electrical current through the BK channel was measured using conventional two-electrode voltage clamp. BK currents were activated by repeating ramp protocols. In brief, the membrane potential was continuously changed from −120 mV to +120 mV within a 2 s period. The threshold for BK activation is approximately +30 mV under control conditions. Compounds were applied for 100 s during which the ramp protocol was repeated 10 times with 10 s intervals. In between the ramp protocols the membrane potential was clamped at −80 mV. The first three compound applications were control blanks where the current level is allowed to stabilize.
In order to evaluate the ability of the compounds to shift the BK activation curve towards lower membrane potentials, the BK current was transformed into conductance by using Ohm's law […], where g is the conductance, I is the current, Ememb is the membrane potential and Erev is the reversal potential. The extracellular solution for these experiments contained 2.5 mM K+ and the intracellular K+ concentration of an oocyte was estimated to be 100 mM. Under those conditions, Nernst equation predicts a reversal potential of Erev=−93.2 mV. The control conductance level at a membrane potential of +100 mV was calculated, and the compound effect was evaluated as the potential difference, ΔV, to the membrane potential at which the same conductance level was obtained in the presence of compound.
The concentration response curve for this potential difference was fitted to the sigmoidal logistic equation: ΔV=ΔVmax/(1+(EC50/[compound])^n), where ΔVmax represents the maximal left shift of the BK activation curve, EC50 is the concentration causing a half maximal response, and n is the slope coefficient.
A general note: Two-electrode voltage clamp is typically applied to oocytes expressing channels or transporters.

T1 sequence (Q12791 whole entry): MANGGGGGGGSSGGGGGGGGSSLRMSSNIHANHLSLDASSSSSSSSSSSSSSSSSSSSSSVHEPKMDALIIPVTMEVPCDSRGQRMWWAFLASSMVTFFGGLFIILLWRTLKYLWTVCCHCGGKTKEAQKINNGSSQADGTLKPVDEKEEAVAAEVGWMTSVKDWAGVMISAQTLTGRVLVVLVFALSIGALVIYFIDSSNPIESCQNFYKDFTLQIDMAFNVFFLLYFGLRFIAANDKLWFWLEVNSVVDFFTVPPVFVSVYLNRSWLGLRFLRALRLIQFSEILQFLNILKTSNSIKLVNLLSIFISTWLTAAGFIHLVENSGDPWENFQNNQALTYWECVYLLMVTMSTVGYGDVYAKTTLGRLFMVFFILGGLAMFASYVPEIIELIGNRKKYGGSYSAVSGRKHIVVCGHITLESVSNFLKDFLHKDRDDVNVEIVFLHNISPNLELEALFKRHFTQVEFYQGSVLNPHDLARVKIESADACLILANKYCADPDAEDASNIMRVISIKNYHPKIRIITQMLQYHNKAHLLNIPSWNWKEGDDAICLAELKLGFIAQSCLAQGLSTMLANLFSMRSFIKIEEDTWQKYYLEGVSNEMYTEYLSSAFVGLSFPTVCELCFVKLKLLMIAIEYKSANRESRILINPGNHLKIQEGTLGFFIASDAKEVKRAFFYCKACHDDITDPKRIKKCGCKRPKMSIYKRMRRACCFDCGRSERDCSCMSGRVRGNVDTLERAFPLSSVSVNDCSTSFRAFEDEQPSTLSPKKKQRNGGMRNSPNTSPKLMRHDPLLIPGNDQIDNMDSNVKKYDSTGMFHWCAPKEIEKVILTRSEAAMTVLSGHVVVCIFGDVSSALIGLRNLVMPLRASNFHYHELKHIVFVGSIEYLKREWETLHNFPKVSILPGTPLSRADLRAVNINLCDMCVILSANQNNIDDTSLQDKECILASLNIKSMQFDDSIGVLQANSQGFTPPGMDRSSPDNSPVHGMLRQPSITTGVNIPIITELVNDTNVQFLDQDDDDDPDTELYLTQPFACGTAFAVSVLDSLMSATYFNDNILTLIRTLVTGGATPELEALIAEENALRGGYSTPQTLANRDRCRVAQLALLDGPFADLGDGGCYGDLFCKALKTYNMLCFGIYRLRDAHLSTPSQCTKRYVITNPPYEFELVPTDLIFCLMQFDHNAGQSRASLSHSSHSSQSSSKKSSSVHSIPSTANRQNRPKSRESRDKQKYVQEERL

In the case of `O=c1[nH]c(Cc2cn(-c3cc(C(F)(F)F)cc(C(F)(F)F)c3)nc2-c2cccc(Cl)c2)no1` [Compound 17, 3-[1-(3,5-Bis-trifluoromethyl-phenyl)-3-(3-chloro-phenyl)-1H-pyrazol-4-ylmethyl]-4H-[1,2,4]oxadiazol-5-one], the melting point – broadly, the temperature, or range, at which the solid turns liquid – is 200 to 201 °C.

As for `COc1ccc(-n2cc(CC(=O)NS(C)(=O)=O)c(-c3ccc(Cl)c(F)c3)n2)cc1Cl` [Compound 18, N-{2-[3-(4-Chloro-3-fluorophenyl)-1-(3-chloro-4-methoxy-phenyl)-1H-pyrazol-4-yl]-acetyl}-methanesulfonamide], the melting point was 216.8 to 218.2 °C.

The compound `COc1ccc(-n2cc(/C=C/c3nnn[nH]3)c(-c3ccc(Cl)c(F)c3)n2)cc1Cl` [Compound 5, 5-{(E)-2-[3-(4-Chloro-3-fluorophenyl)-1-(3-chloro-4-methoxy-phenyl)-1H-pyrazol-4-yl]-vinyl}-1H-tetrazole] yielded a melting point of 128.4 to 130 °C.

Take `COc1ccc(-n2cc(/C=C(\C#N)C(=O)O)c(-c3ccc(Cl)c(F)c3)n2)cc1Cl` [Compound 14, (E)-3-[3-(4-Chloro-3-fluoro-phenyl)-1-(3-chloro-4-methoxy-phenyl)-1H-pyrazol-4-yl]-2-cyano-acrylic acid]: the melting point was in the range of 282.8 to 284.2 °C.

Take `Clc1ccc(-c2nn(-c3ccc(Br)cc3)cc2CCc2nnn[nH]2)cc1` [Compound 9, 5-{2-[1-(4-Bromo-phenyl)-3-(4-chloro-phenyl)-1H-pyrazol-4-yl]-ethyl}-1H-tetrazole]: the EC50 in data set [1] (BK channels heterologously expressed in Xenopus laevis oocytes, ramp -120 to +120 mV, 0.01-31.6 μM, fit of ΔV vs concentration, read-out: EC50 for the left-shift of the BK activation curve) turned out to be 1400 nM. For the same compound, the “ΔVmax, maximal left shift of the BK activation curve” value in data set [1] (BK channels heterologously expressed in Xenopus laevis oocytes, ΔV referred to control conductance at +100 mV, 0.01-31.6 μM) is given as −96 mV. Besides, the “BK current level at depolarizing potentials” value in data set [1] (increasing concentrations (0.01-31.6 μM) applied, Xenopus laevis oocytes) is “marked increase in the current level”.

With `COc1ccc(-n2cc(/C=C/C(=O)O)c(-c3ccc(Cl)c(F)c3)n2)cc1Cl` [Compound 3, (E)-3-[3-(4-Chloro-3-fluoro-phenyl)-1-(3-chloro-4-methoxy-phenyl)-1H-pyrazol-4-yl]-acrylic acid], the melting point was in the range of 240.2 to 241.3 °C.

The compound `COc1ccc(-n2cc(/C=C/C(=O)NS(C)(=O)=O)c(-c3ccc(Cl)c(F)c3)n2)cc1Cl` [Compound 6, N-{(E)-3-[3-(4-Chloro-3-fluoro-phenyl)-1-(3-chloro-4-methoxy-phenyl)-1H-pyrazol-4-yl]-acryloyl}-methanesulfonamide] yielded a melting point of 269.3 to 270.5 °C.
